The supplement of paper PMC8967900

Tests used:
Experiment in all cases: selective drug sensitivity score (sDSS, relative to normal bone marrow) (sDSS (score)); higher = more potent and effective on the cell line relative to normal bone marrow cells
Conditions in all cases: 72 h
RCH-ACV = test system: RCH-ACV
P30-OHKUBO = test system: P30-OHKUBO
KASUMI-10 = test system: KASUMI-10
ALL-SIL = test system: ALL-SIL
RPMI-8402 = test system: RPMI-8402
MHH-CALL-3 = test system: MHH-CALL-3
CCRF-CEM = test system: CCRF-CEM
NALM-16 = test system: NALM-16
DND-41 = test system: DND-41
SEM cells = test system: SEM cells
PF-382 = test system: PF-382
LC4-1 = test system: LC4-1
NALM-6 = test system: NALM-6
NALL-1 = test system: NALL-1
COG-LL-332h = test system: COG-LL-332h
HPB-ALL = test system: HPB-ALL
REH = test system: REH
COG-LL-355h = test system: COG-LL-355h
KASUMI-2 = test system: KASUMI-2
SUP-B15 = test system: SUP-B15
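Note: ALL cell lines in 384-well plates, five doses spanning 10,000-fold, each plate scaled between vehicle and 100 µmol/L benzalkonium chloride controls, sDSS an adapted area-under-curve metric.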

Compound | selective drug sensitivity score (RCH-ACV) | selective drug sensitivity score (P30-OHKUBO) | selective drug sensitivity score (KASUMI-10) | selective drug sensitivity score (ALL-SIL) | selective drug sensitivity score (RPMI-8402) | selective drug sensitivity score (MHH-CALL-3) | selective drug sensitivity score (CCRF-CEM) | selective drug sensitivity score (NALM-16) | selective drug sensitivity score (DND-41) | selective drug sensitivity score (SEM cells) | selective drug sensitivity score (PF-382) | selective drug sensitivity score (LC4-1) | selective drug sensitivity score (NALM-6) | selective drug sensitivity score (NALL-1) | selective drug sensitivity score (COG-LL-332h) | selective drug sensitivity score (HPB-ALL) | selective drug sensitivity score (REH) | selective drug sensitivity score (COG-LL-355h) | selective drug sensitivity score (KASUMI-2) | selective drug sensitivity score (SUP-B15)
CNC(=O)c1ccc(N2C(=S)N(c3cnc(C#N)c(C(F)(F)F)c3)C(=O)C23CCC3)cc1F [Apalutamide] (top concentration 10000 nM) | 0 | 0 | 0 | 0 | 0 | 0 | 0 | 0 | 0 | 0 | 0 | 0 | 0 | 0 | 0 | 0 | 0 | 0 | 0 | 0
N.N.[Cl][Pt][Cl] [Cisplatin] (top concentration 100000 nM) | 20.5 | 16.7 | 12 | 8.94 | 4.04 | 4.04 | 15.3 | -0.86 | 9.54 | 12.2 | 10.2 | 17.7 | 0.64 | 6.84 | 19.4 | 7.14 | 10.8 | 5.84 | 17.2 | 17.4
Cc1nc(=O)c2cc(CN(C)c3ccc(C(=O)N[C@@H](CCC(=O)O)C(=O)O)s3)ccc2[nH]1 [Raltitrexed] (top concentration 1000 nM) | 29.2 | 25.3 | 18.1 | 17.3 | 23.4 | 9.92 | 23.3 | 9.12 | 16.5 | 23.9 | 13.1 | 19.3 | 23 | 12.8 | 18.3 | 13.4 | 24.3 | 4.82 | 15.8 | 28
COc1cc2ncnc(Nc3ccc(F)c(Cl)c3)c2cc1OCCCN1CCOCC1 [Gefitinib] (top concentration 10000 nM) | 1.66 | -0.04 | 1.36 | 3.66 | 3.96 | -2.94 | 0.56 | -3.04 | 1.16 | 0.66 | 0.26 | 1.16 | -0.44 | 1.06 | 2.56 | -1.14 | 2.36 | 0.96 | -3.04 | 1.56
N#CC1(c2ccc(NC(=O)c3cccnc3NCc3ccncc3)cc2)CCCC1 [Apatinib] (top concentration 10000 nM) | 1.1 | 0 | 0 | 0 | 0.1 | 0 | 0 | 0 | 1 | 1 | 0 | 1.2 | 0.4 | 0 | 0 | 1 | 0.1 | 0 | 2.1 | 0.1
O=S(=O)(c1cccc2c(O)nccc12)N1CCCNCC1 [Hydroxyfasudil] (top concentration 19000 nM) | -0.72 | -0.52 | -0.82 | -0.92 | -0.72 | 3.88 | -0.32 | -0.92 | -0.92 | 0.08 | -0.92 | -0.92 | -0.92 | 2.58 | -0.82 | -0.92 | -0.62 | -0.92 | 0.08 | -0.52
O=C(Nc1cc(Cl)cc2c1[nH]c1cnccc12)c1cccnc1 [PS-1145] (top concentration 25000 nM) | 3.04 | 1.94 | 3.44 | -0.46 | -0.46 | -0.46 | -0.46 | -0.46 | -0.46 | 0.04 | -0.46 | -0.46 | -0.46 | 9.14 | -0.46 | -0.46 | 1.94 | -0.46 | -0.46 | -0.46
Cc1c2oc3c(C)ccc(C(=O)N[C@@H]4C(=O)N[C@H](C(C)C)C(=O)N5CCC[C@H]5C(=O)N(C)CC(=O)N(C)[C@@H](C(C)C)C(=O)O[C@@H]4C)c3nc-2c(C(=O)N[C@@H]2C(=O)N[C@H](C(C)C)C(=O)N3CCC[C@H]3C(=O)N(C)CC(=O)N(C)[C@@H](C(C)C)C(=O)O[C@@H]2C)c(N)c1=O [Dactinomycin] (top concentration 1000 nM) | 18.5 | 19.1 | 17.6 | 8.04 | 1.54 | 15.7 | 7.04 | 5.24 | 11 | 11.3 | 3.64 | 17.5 | 12.5 | 1.44 | 14.5 | 6.14 | 16.3 | 8.54 | 15 | 20.7
O=c1ncn2nc(Sc3ccc(F)cc3F)ccc2c1-c1c(Cl)cccc1Cl [Neflamapimod] (top concentration 10000 nM) | 6.7 | 2.2 | 0 | 1.3 | 2.1 | 0 | 0 | 0 | 0.5 | 1.5 | 0.5 | 0.9 | 0.6 | 2.1 | 0.3 | 0.8 | 3.1 | 2.2 | 0 | 0.5
